Source: the COVID Moonshot data (paper PMC7615835)
pIC50: −log10 of the molar value. “And” between values parts separate entries of the source, which are not always exact repeats. Equal values may be shown once.

How the values were obtained:
[1] = not given; remark: listed apart in the source
[2] = molecular target: SARS-CoV-2 Main Protease (SARS-CoV-2) (UniProt P0DTD1)
[3] = in vivo, iv, 0.5 mg/kg

SMILES	pIC50 [2]	AUC(0-inf) ([3]; rat)	AUC(0-t) ([3]; rat)	C0 ([3]; rat)	MRT inf ([3]; rat)	MRT last ([3]; rat)	Vd ([3]; rat)	clearance ([3]; rat)	half-life ([3]; rat)	further results
O=C(Nc1cncc2ccncc12)C1CCNc2cc(Cl)c(Cl)cc21 (stereo unspecified)	–	–	–	–	–	–	–	–	–	CC50 (a549): > 9990 nM
CN(C)C(=O)CNCC1(C(=O)Nc2cncc3ccccc23)CCOc2ccc(Cl)cc21 (stereo unspecified)	6.22	–	–	–	–	–	–	–	–	logD [1]: 2.7
CC1Cn2nccc2CN1C(=O)CC1(C(=O)Nc2cncc3ccccc23)CCOc2ccc(Cl)cc21 (stereo unspecified)	5.81 and 5.55	–	–	–	–	–	–	–	–	CC50 (a549): > 9990 nM
CNC(=O)N1Cc2ccc(Cl)cc2C(C(=O)Nc2cncc3ccccc23)C1 (stereo unspecified)	6.57	–	–	–	–	–	–	–	–	AUC(0-inf) ([3]; mouse): 97.6 ng·h/mL and 117 ng·h/mL; AUC(0-t) ([3]; mouse): 94.9 ng·h/mL and 115 ng·h/mL; C0 ([3]; mouse): 328 ng/mL and 570 ng/mL; MRT inf ([3]; mouse): 16.4 min and 13.4 min; MRT last ([3]; mouse): 14.7 min and 12.5 min; Vd ([3]; mouse): 1.32 L/kg and 0.896 L/kg; clearance ([3]; mouse): 80.4 mL/min/kg and 68.2 mL/min/kg; half-life ([3]; mouse): 11.5 min and 9.96 min
Cn1ncc2cncc(NC(=O)Cc3cccc(Cl)c3)c21	5.82	178 ng·h/mL and 250 ng·h/mL	178 ng·h/mL and 248 ng·h/mL	820 ng/mL and 1030 ng/mL	19.3 min and 15.2 min	14.9 min and 18.1 min	0.709 L/kg and 0.64 L/kg	46.7 mL/min/kg and 34.6 mL/min/kg	14.9 min and 17.9 min	–
CNS(=O)(=O)N1Cc2ccc(Cl)cc2C(C(=O)Nc2cncc3ccccc23)C1 (stereo unspecified)	6.83	185 ng·h/mL and 255 ng·h/mL and 157 ng·h/mL	183 ng·h/mL and 254 ng·h/mL and 155 ng·h/mL	507 ng/mL and 850 ng/mL and 519 ng/mL	31.6 min and 38.9 min and 23.9 min	36.1 min and 30.6 min and 22.1 min	1.75 L/kg and 1.07 L/kg and 1.5 L/kg	45.1 mL/min/kg and 33.3 mL/min/kg and 62.7 mL/min/kg	41 min and 32.2 min and 20 min	–
O=C(Cc1cccc(Cl)c1)Nc1cncc2cc(F)ccc12	5.83	–	–	–	–	–	–	–	–	CC50 (a549): > 9990 nM
CNC(=O)c1cc2c(NC(=O)C3CCOc4ccc(Cl)cc43)cncc2s1 (stereo unspecified)	6.24	267 ng·h/mL and 298 ng·h/mL	263 ng·h/mL and 291 ng·h/mL	712 ng/mL and 752 ng/mL	55.4 min and 40.1 min	35.8 min and 39.7 min	1.45 L/kg and 1.85 L/kg	36.2 mL/min/kg and 32.6 mL/min/kg	39.1 min and 113 min	logD [1]: 3
COc1ccc2cncc(NC(=O)[C@H]3CCNc4cc(Cl)c(Cl)cc43)c2c1 (stereo in doubt)	> 7.30 and 7.08 and 7.27	–	–	–	–	–	–	–	–	AUC(0-inf) ([3]; mouse): 113 ng·h/mL and 130 ng·h/mL; AUC(0-t) ([3]; mouse): 113 ng·h/mL and 128 ng·h/mL; C0 ([3]; mouse): 179 ng/mL and 202 ng/mL; MRT inf ([3]; mouse): 28.6 min and 30.8 min; MRT last ([3]; mouse): 27.6 min and 28.9 min; Vd ([3]; mouse): 2.09 L/kg and 1.97 L/kg; clearance ([3]; mouse): 73.4 mL/min/kg and 64 mL/min/kg; half-life ([3]; mouse): 16.1 min and 19.4 min
N#Cc1ncc(NC(=O)Cc2cccc(Cl)c2)c2ccccc12	4.18	242 ng·h/mL and 224 ng·h/mL	241 ng·h/mL and 222 ng·h/mL	809 ng/mL and 728 ng/mL	28.6 min and 29.3 min	28.2 min and 26.5 min	1.17 L/kg and 1.23 L/kg	39.9 mL/min/kg and 43.2 mL/min/kg	35.3 min and 42.1 min	–
N#CC1(CS(=O)(=O)N2Cc3ccc(Cl)cc3C(C(=O)Nc3cncc4ccccc34)C2)CNC1 (stereo unspecified)	6.77	101 ng·h/mL and 104 ng·h/mL	99.7 ng·h/mL and 102 ng·h/mL	417 ng/mL and 369 ng/mL	24.5 min and 22.7 min	20.7 min and 22.2 min	1.55 L/kg and 1.68 L/kg	68.6 mL/min/kg and 67.4 mL/min/kg	20.8 min and 21.5 min	logD [1]: 1.8
COc1ccc2cncc(NC(=O)[C@]3(OC)CCOc4ccc(Cl)cc43)c2c1 (stereo in doubt)	7.21 and 7.12 and 7.07	–	–	–	–	–	–	–	–	logD [1]: 3.4
O=C(Nc1cncc2c1CCCC2)C1CCNc2cc(Cl)c(Cl)cc21 (stereo unspecified)	–	–	–	–	–	–	–	–	–	logD [1]: 3.9
COC(=O)C1(NC(=O)C(c2cccnc2)N(C(=O)c2cocn2)c2ccc(C(C)(C)C)cc2)CCCC1 (stereo unspecified)	5.28	–	–	–	–	–	–	–	–	CC50 (vero): > 10000 nM
COC(=O)N1Cc2ccc(Cl)cc2C(C(=O)Nc2cncc3ccccc23)C1 (stereo unspecified)	6.65	152 ng·h/mL and 94.2 ng·h/mL	150 ng·h/mL and 93.6 ng·h/mL	411 ng/mL and 345 ng/mL	20.4 min and 24.1 min	22.5 min and 19.4 min	1.32 L/kg and 1.82 L/kg	54.9 mL/min/kg and 88.6 mL/min/kg	20 min and 18.2 min	–
C=CC(=O)N(C(=O)[C@@H]1CCOc2ccc(Cl)cc21)c1cncc2ccccc12 (stereo in doubt)	–	–	–	–	–	–	–	–	–	CC50 (a549): > 9990 nM; CC50 (vero): > 9990 nM
O=C(Nc1cncc2ccccc12)C1CN(S(=O)(=O)C2CC2)Cc2ccc(Cl)cc21 (stereo unspecified)	6.51	–	–	–	–	–	–	–	–	AUC(0-inf) ([3]; mouse): 112 ng·h/mL and 120 ng·h/mL; AUC(0-t) ([3]; mouse): 109 ng·h/mL and 116 ng·h/mL; C0 ([3]; mouse): 314 ng/mL and 396 ng/mL; MRT inf ([3]; mouse): 17.5 min and 18 min; MRT last ([3]; mouse): 16 min and 15.5 min; Vd ([3]; mouse): 1.3 L/kg and 1.25 L/kg; clearance ([3]; mouse): 74.5 mL/min/kg and 69.4 mL/min/kg; half-life ([3]; mouse): 10.7 min and 12.7 min
N#Cc1ccc2cncc(NC(=O)C3CCOc4ccc(Cl)cc43)c2c1 (stereo unspecified)	–	–	–	–	–	–	–	–	–	CC50 (a549): > 10000 nM
COC1(C(=O)Nc2cncc3ccc(S(C)(=O)=O)cc23)CCOc2ccc(Cl)cc21 (stereo unspecified)	6.37	–	–	–	–	–	–	–	–	AUC(0-inf) ([3]; mouse): 51.9 ng·h/mL and 61.9 ng·h/mL; AUC(0-t) ([3]; mouse): 50.3 ng·h/mL; C0 ([3]; mouse): 142 ng/mL and 157 ng/mL; MRT inf ([3]; mouse): 31.3 min and 26.9 min; MRT last ([3]; mouse): 27.4 min and 24.5 min; Vd ([3]; mouse): 5.03 L/kg and 3.65 L/kg; clearance ([3]; mouse): 161 mL/min/kg and 135 mL/min/kg; half-life ([3]; mouse): 25.3 min and 22.1 min
Cc1nc2n(n1)CC(C(=O)NC(C)(C(=O)Nc1cncc3ccccc13)c1ccc(Cl)c(Cl)c1)CC2 (stereo unspecified)	5.46 and 5.17	–	–	–	–	–	–	–	–	CC50 (a549): > 9990 nM
O=C(Cc1cc(F)cc(Cl)c1)Nc1cncc2ccccc12	6.43 and 6.40	–	–	–	–	–	–	–	–	CC50 (a549): > 9990 nM
O=C(Cc1cccc(Cl)c1)Nc1cnn2ccccc12	4.95	209 ng·h/mL and 179 ng·h/mL	201 ng·h/mL and 176 ng·h/mL	652 ng/mL and 621 ng/mL	31.1 min	25.4 min and 27.5 min	1.24 L/kg and 1.44 L/kg	39.8 mL/min/kg and 46.6 mL/min/kg	29.4 min and 33.7 min	–
N#CCC(=O)N1Cc2ccc(Cl)cc2C(C(=O)Nc2cncc3ccccc23)C1 (stereo unspecified)	6.69	128 ng·h/mL and 148 ng·h/mL	124 ng·h/mL and 144 ng·h/mL	404 ng/mL and 370 ng/mL	28.7 min and 29.3 min	24.5 min and 25.6 min	1.61 L/kg and 1.36 L/kg	54.8 mL/min/kg and 47.4 mL/min/kg	25.4 min and 22 min	–
CS(=O)(=O)N1Cc2ccc(Cl)cc2[C@H](C(=O)Nc2cncc3ccccc23)C1 (stereo in doubt)	–	–	–	–	–	–	–	–	–	logD [1]: 2.2
O=C1NCC(C(=O)Nc2cncc3ccccc23)c2cc(Cl)ccc21 (stereo unspecified)	6.68	377 ng·h/mL and 428 ng·h/mL and 182 ng·h/mL	374 ng·h/mL and 422 ng·h/mL and 180 ng·h/mL	443 ng/mL and 648 ng/mL and 439 ng/mL	57.1 min and 75 min and 37.4 min	71.4 min and 53 min and 35 min	1.66 L/kg and 1.12 L/kg and 1.75 L/kg	22.1 mL/min/kg and 19.5 mL/min/kg and 46.8 mL/min/kg	64.8 min and 52 min and 34.7 min	–
O=C(Nc1cncc2ccccc12)C(O)c1ccc(Cl)c(Cl)c1 (stereo unspecified)	5.70	–	–	–	–	–	–	–	–	CC50 (a549): > 9990 nM
CS(=O)(=O)N1Cc2ccc(Cl)cc2C(C(=O)Nc2cncc3cccc(F)c23)C1 (stereo unspecified)	6.02	110 ng·h/mL and 136 ng·h/mL	107 ng·h/mL and 134 ng·h/mL	332 ng/mL and 376 ng/mL	25.8 min and 25.9 min	22.9 min and 23.5 min	1.57 L/kg and 1.26 L/kg	60.6 mL/min/kg and 48.6 mL/min/kg	23.9 min and 20.4 min	–
O=C(Cc1cccc(Cl)c1)Nc1cnccc1C1CC1	5.14	77 ng·h/mL and 54.5 ng·h/mL	74.1 ng·h/mL and 53.2 ng·h/mL	260 ng/mL and 176 ng/mL	20.7 min and 17.8 min	15.4 min and 18.5 min	1.92 L/kg and 3.14 L/kg	108 mL/min/kg and 153 mL/min/kg	12.5 min and 15.8 min	–
C[C@@H]1C[C@@H](C(=O)Nc2cncc3ccccc23)c2cc(Cl)ccc2O1 (stereo in doubt)	6.64	–	–	–	–	–	–	–	–	logD [1]: 3.4
